Laboratory results published in ChEMBL document CHEMBL5046291, “Evodiamine-Inspired Topoisomerase-Histone Deacetylase Dual Inhibitors: Novel Orally Active Antitumor Agents for Leukemia Therapy” (J Med Chem, 2022).
Each block holds one molecule with its values, some of them ahead of it. Calls of active or inactive are those of the source. No cut-off for these calls is given here.

Legend:
HCT-116 = assay: Antiproliferative activity against human HCT-116 cells assessed as cell growth inhibition incubated for 8 hrs by CCK8 assay; format: functional, cell-based; details: HCT-116, 8 h
HEL [1] = assay: Synergistic antiproliferative effect on HEL cells assessed as combination index at 3.33 uM in presence of vorinostat; format: functional, Homo sapiens
HEL [2] = assay: Synergistic antiproliferative effect on HEL cells assessed as combination index at 0.046 uM in presence of vorinostat; format: functional, Homo sapiens
HEL [3] = assay: Synergistic antiproliferative effect on HEL cells assessed as fractional inhibitory concentration index at 0.0046 uM in presence of vorinostat; format: functional, Homo sapiens
HEL [4] = assay: Antitumor activity against HEL cells xenografted in BALB/C mouse assessed as T/C value at 10 mg/kg, po qd for 14 days consecutively by caliper method relative to control; format: functional, Homo sapiens; details: time 14 day
K562 = assay: Antiproliferative activity against human K562 cells assessed as cell growth inhibition incubated for 8 hrs by CCK8 assay; format: functional, cell-based; details: K562, 8 h
HEL [5] = assay: Synergistic antiproliferative effect on HEL cells assessed as combination index at 10 uM in presence of vorinostat; format: functional, Homo sapiens
HEL [6] = assay: Antitumor activity against HEL cells xenografted in BALB/C mouse assessed as tumor growth inhibition at 10 mg/kg, po qd for 14 days consecutively by caliper method relative to control; format: functional, Homo sapiens; details: 336 h, time 14 day, read-out: TGI
HEL [7] = assay: Synergistic antiproliferative effect on HEL cells assessed as combination index at 0.014 uM in presence of vorinostat; format: functional, Homo sapiens
A549 = assay: Antiproliferative activity against human A549 cells assessed as cell growth inhibition incubated for 8 hrs by CCK8 assay; format: functional, cell-based; details: A549, 8 h
HEL [8] = assay: Synergistic antiproliferative effect on HEL cells assessed as fractional inhibitory concentration index at 10 uM in presence of vorinostat; format: functional, Homo sapiens
HEL [9] = assay: Synergistic antiproliferative effect on HEL cells assessed as fractional inhibitory concentration index at 0.12 uM in presence of vorinostat; format: functional, Homo sapiens
HEL [10] = assay: Synergistic antiproliferative effect on HEL cells assessed as combination index at 0.04 uM in presence of vorinostat; format: functional, Homo sapiens
HEL [11] = assay: Synergistic antiproliferative effect on HEL cells assessed as fractional inhibitory concentration index at 0.014 uM in presence of vorinostat; format: functional, Homo sapiens
HEL [12] = assay: Synergistic antiproliferative effect on HEL cells assessed as combination index at 0.12 uM in presence of vorinostat; format: functional, Homo sapiens
HEL [13] = assay: Synergistic antiproliferative effect on HEL cells assessed as combination index at 0.37 uM in presence of vorinostat; format: functional, Homo sapiens
HEL [14] = assay: Synergistic antiproliferative effect on HEL cells assessed as fractional inhibitory concentration index at 0.04 uM in presence of vorinostat; format: functional, Homo sapiens
MCF7 = assay: Antiproliferative activity against human MCF7 cells assessed as cell growth inhibition incubated for 8 hrs by CCK8 assay; format: functional, cell-based; details: MCF7, 8 h
HepG2 = assay: Antiproliferative activity against human HepG2 cells assessed as cell growth inhibition incubated for 8 hrs by CCK8 assay; format: functional, cell-based; details: HepG2, 8 h
HEL [15] = assay: Synergistic antiproliferative effect on HEL cells assessed as fractional inhibitory concentration index at 0.37 uM in presence of vorinostat; format: functional, Homo sapiens
HEL [16] = assay: Synergistic antiproliferative effect on HEL cells assessed as fractional inhibitory concentration index at 3.33 uM in presence of vorinostat; format: functional, Homo sapiens
HEL [17] = assay: Synergistic antiproliferative effect on HEL cells assessed as combination index at 1.11 uM in presence of vorinostat; format: functional, Homo sapiens
HEL [18] = assay: Synergistic antiproliferative effect on HEL cells assessed as fractional inhibitory concentration index at 1.11 uM in presence of vorinostat; format: functional, Homo sapiens
HEL [19] = assay: Antiproliferative activity against HEL cells assessed as cell growth inhibition incubated for 8 hrs by CCK8 assay; format: functional, cell-based; details: Homo sapiens
Histone deacetylase 1 [20] = molecular target: T1, Histone deacetylase 1 (Homo sapiens, UniProt Q13547); assay: Inhibition of HDAC1 in HEL cells assessed as increase in acetyl-H3 levels at 20 to 100 nM incubated for 24 hrs by western blot analysis; format: cell-based; details: dose 20-100 nM
T1 sequence (Q13547 whole entry): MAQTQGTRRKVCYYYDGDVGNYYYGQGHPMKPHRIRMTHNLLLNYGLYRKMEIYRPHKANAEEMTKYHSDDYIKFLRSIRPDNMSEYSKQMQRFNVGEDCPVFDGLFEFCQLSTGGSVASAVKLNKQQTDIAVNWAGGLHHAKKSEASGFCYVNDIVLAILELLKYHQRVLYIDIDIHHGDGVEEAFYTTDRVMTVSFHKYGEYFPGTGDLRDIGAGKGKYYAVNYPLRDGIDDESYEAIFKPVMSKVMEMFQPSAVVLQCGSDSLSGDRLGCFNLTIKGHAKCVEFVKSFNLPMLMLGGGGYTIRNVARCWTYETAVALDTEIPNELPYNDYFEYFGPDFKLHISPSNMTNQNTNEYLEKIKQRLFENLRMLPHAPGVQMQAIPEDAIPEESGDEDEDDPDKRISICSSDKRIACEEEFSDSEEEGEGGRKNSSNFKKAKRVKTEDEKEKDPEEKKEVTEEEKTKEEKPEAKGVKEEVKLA

Histone deacetylase 2 [21] = molecular target: T2, Histone deacetylase 2 (Homo sapiens, UniProt Q92769); assay: Inhibition of recombinant full length C-terminal GST tagged human HDAC2 expressed in baculovirus infected Sf9 insect cells using Ac-Leu-Gly-Lys(Ac)-AMC as substrate preincubated for 5 mins followed by substrate addition and further incubated for 30 mins by fluorescence based microtiter plate reader assay
T2 sequence (Q92769 whole entry): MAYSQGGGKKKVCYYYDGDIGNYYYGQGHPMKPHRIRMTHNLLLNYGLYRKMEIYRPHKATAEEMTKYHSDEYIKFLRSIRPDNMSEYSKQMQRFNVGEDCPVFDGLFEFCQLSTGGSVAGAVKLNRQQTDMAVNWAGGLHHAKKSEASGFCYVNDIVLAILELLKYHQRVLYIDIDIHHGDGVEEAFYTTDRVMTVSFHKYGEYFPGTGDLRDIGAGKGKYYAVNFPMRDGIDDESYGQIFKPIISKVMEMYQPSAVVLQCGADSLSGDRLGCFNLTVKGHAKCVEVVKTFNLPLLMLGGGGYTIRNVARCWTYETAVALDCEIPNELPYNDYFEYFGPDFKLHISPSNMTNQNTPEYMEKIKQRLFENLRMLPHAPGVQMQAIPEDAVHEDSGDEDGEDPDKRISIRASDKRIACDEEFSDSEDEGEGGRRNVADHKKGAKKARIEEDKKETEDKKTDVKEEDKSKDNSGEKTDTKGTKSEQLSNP

[22] = molecular target: T3, DNA topoisomerase 1 (Homo sapiens) (UniProt P11387); assay: Inhibition of recombinant Top1 (unknown origin) assessed as inhibition of relaxation of supercoiled pBR322 plasmid DNA at 100 uM incubated for 15 mins by ethidium bromide staining based agarose gel electrophoresis analysis
T3 sequence (whole entry): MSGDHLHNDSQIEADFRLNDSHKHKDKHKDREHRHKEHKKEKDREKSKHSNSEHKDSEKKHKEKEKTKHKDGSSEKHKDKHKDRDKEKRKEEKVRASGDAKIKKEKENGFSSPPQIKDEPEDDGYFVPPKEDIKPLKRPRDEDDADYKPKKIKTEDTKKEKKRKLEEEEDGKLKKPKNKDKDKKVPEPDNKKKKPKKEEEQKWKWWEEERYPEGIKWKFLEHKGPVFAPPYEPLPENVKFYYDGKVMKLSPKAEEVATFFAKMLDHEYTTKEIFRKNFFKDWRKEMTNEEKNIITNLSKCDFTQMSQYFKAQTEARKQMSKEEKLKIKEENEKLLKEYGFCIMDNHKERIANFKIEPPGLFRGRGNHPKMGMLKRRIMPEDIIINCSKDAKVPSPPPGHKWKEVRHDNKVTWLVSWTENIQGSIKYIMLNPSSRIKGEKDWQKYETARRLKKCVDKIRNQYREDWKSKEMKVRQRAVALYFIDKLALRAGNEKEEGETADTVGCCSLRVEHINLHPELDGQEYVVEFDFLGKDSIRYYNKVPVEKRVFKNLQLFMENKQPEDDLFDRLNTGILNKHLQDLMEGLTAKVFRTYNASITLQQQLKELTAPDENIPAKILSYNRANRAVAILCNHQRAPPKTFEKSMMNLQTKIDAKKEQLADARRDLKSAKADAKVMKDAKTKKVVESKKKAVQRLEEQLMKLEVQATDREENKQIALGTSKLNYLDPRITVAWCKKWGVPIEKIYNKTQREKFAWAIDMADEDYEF

Histone deacetylase 2 [23] = molecular target: T2, Histone deacetylase 2; assay: Inhibition of HDAC2 in HEL cells assessed as increase in acetyl-H4 levels at 20 to 100 nM incubated for 24 hrs by western blot analysis; format: cell-based; details: dose 20-100 nM
Histone deacetylase 1 [24] = molecular target: T1, Histone deacetylase 1; assay: Inhibition of full-length recombinant human HDAC1 expressed in Baculovirus expression system using Ac-Leu-Gly-Lys(Ac)-AMC as substrate preincubated for 5 mins followed by substrate addition and further incubated for 30 mins by fluorescence based microtiter plate reader assay
[25] = molecular target: DNA topoisomerase 2-alpha (Homo sapiens) (UniProt P11388); assay: Inhibition of recombinant Top2 (unknown origin) assessed as inhibition of relaxation of supercoiled pBR322 plasmid DNA at 100 uM incubated for 15 mins by ethidium bromide staining based agarose gel electrophoresis analysis
Chain of DNA topoisomerase 2-alpha (Homo sapiens) (P11388 whole entry): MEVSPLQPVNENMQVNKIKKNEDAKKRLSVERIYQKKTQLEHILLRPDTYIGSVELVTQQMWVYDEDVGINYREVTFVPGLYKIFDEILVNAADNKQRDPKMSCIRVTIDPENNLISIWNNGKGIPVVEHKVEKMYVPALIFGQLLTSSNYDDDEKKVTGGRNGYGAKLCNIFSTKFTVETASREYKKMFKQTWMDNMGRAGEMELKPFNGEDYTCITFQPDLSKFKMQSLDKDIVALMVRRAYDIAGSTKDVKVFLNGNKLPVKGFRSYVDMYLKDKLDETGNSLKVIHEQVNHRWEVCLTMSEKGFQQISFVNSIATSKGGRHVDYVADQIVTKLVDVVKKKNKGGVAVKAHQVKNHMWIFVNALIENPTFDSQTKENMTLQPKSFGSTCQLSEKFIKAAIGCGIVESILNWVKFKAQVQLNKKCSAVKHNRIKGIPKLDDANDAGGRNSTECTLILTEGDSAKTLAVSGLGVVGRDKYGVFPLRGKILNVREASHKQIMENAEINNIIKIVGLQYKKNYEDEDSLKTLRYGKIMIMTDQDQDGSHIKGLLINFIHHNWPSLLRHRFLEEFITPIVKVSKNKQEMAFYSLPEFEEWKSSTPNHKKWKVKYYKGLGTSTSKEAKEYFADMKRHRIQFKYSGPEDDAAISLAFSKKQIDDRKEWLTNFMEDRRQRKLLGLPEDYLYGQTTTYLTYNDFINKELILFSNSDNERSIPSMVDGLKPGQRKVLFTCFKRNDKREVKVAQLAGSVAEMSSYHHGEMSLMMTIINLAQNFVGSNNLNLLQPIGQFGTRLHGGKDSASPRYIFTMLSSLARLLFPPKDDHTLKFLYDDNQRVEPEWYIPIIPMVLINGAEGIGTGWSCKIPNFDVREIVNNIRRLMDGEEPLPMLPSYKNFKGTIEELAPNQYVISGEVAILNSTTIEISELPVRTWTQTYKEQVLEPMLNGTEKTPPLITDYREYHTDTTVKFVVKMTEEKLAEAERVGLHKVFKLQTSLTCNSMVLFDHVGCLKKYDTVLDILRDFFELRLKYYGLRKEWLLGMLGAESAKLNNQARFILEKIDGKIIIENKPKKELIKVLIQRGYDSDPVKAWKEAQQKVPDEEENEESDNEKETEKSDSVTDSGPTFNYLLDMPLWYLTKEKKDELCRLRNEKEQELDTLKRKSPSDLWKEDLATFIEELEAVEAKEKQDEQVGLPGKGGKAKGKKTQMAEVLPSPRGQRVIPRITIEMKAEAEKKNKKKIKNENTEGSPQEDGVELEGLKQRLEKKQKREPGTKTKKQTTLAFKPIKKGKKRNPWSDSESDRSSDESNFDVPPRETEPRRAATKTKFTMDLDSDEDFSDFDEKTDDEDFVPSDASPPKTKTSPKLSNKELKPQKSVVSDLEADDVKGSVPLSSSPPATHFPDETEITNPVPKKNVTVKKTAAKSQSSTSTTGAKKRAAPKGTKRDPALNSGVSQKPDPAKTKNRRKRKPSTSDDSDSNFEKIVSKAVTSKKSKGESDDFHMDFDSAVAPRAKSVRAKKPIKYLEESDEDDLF

[26] = molecular target: T4, Protein deacetylase HDAC6 (Homo sapiens, UniProt Q9UBN7); assay: Inhibition of full-length recombinant N-terminal GST-tagged human HDAC6 expressed in baculovirus infected Sf9 cells using Ac-Leu-Gly-Lys(Ac)-AMC as substrate preincubated for 5 mins followed by substrate addition and further incubated for 30 mins by fluorescence based microtiter plate reader assay
T4 sequence (Q9UBN7 whole entry): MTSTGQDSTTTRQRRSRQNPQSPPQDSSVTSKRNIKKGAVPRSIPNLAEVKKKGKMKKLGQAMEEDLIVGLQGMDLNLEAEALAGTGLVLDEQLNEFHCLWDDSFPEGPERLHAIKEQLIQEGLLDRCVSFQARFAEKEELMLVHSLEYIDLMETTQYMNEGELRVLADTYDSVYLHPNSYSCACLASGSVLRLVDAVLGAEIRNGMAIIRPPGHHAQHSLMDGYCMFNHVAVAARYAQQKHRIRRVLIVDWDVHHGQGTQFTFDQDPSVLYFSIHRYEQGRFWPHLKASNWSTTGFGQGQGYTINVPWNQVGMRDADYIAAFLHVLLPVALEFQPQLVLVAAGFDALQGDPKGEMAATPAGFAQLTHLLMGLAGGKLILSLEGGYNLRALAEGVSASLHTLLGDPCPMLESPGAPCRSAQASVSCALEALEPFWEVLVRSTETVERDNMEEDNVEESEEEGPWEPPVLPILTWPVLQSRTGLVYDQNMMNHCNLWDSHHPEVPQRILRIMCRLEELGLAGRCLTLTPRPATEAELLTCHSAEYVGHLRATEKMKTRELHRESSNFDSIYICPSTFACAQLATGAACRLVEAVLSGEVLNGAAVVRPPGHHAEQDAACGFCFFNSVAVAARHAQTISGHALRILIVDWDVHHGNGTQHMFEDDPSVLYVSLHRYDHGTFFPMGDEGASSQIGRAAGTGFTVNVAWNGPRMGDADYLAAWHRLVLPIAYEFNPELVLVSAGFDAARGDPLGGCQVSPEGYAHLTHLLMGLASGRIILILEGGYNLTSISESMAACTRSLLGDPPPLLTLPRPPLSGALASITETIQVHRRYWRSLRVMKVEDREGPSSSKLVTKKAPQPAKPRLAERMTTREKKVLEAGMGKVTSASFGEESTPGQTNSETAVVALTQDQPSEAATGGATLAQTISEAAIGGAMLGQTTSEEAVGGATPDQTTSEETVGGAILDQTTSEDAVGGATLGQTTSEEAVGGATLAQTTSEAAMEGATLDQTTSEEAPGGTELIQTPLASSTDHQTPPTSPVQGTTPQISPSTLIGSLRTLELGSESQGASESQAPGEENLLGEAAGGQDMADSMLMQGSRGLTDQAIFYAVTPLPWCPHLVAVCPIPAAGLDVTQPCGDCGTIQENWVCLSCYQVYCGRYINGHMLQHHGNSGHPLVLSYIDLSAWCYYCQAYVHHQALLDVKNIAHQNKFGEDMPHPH

Histone deacetylase 3 = Histone deacetylase 3 (Homo sapiens, UniProt O15379); assay: Inhibition of recombinant His-tagged human HDAC3 expressed in baculovirus infected insect cells using Ac-Leu-Gly-Lys(Ac)-AMC as substrate preincubated for 5 mins followed by substrate addition and further incubated for 30 mins by fluorescence based microtiter plate reader assay
Chain of Histone deacetylase 3 (O15379 whole entry): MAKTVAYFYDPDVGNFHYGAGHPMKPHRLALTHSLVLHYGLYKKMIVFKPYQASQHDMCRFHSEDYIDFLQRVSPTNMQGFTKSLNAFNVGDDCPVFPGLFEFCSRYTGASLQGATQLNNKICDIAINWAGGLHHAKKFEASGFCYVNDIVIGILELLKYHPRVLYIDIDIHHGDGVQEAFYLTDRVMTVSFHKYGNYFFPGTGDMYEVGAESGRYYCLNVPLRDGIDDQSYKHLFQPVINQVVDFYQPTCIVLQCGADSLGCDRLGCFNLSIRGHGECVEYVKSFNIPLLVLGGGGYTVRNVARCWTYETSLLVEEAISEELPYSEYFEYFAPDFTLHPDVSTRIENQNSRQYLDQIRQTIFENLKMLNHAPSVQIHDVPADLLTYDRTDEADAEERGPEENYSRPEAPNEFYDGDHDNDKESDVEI

Histone deacetylase 8 = molecular target: T5, Histone deacetylase 8 (Homo sapiens, UniProt Q9BY41); assay: Inhibition of full-length recombinant C-terminal His-tagged human HDAC8 expressed in baculovirus infected Sf9 insect cells using Ac-Leu-Gly-Lys(Tfa)-AMC as substrate preincubated for 5 mins followed by substrate addition and further incubated for 30 mins by fluorescence based microtiter plate reader assay
T5 sequence (Q9BY41 whole entry): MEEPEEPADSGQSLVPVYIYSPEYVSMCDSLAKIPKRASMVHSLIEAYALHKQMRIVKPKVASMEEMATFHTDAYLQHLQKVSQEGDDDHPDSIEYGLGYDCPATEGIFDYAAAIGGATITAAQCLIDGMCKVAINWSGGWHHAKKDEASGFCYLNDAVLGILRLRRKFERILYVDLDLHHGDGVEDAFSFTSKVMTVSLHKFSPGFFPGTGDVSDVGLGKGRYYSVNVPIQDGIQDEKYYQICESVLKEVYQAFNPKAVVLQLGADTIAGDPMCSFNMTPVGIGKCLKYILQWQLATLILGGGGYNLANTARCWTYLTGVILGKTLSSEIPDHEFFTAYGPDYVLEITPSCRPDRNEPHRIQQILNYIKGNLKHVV

[27] = molecular target: T3, DNA topoisomerase 1 (Homo sapiens); assay: Inhibition of recombinant Top1 (unknown origin) assessed as inhibition of relaxation of supercoiled pBR322 plasmid DNA at 50 uM incubated for 15 mins by ethidium bromide staining based agarose gel electrophoresis analysis
[28] = molecular target: DNA topoisomerase 2-alpha (Homo sapiens) (UniProt P11388); assay: Inhibition of recombinant Top2 (unknown origin) assessed as inhibition of relaxation of supercoiled pBR322 plasmid DNA at 50 uM incubated for 15 mins by ethidium bromide staining based agarose gel electrophoresis analysis

- IC50 (HCT-116): 190 nM
- IC50 (K562): 230 nM
- IC50 (A549): 530 nM
- IC50 (MCF7): 760 nM
- IC50 (HepG2): 430 nM
SMILES: CN1c2ccc(F)cc2C(=O)N2CCc3c([nH]c4ccc(O)cc34)C21 (stereo unspecified)
- CI (HEL [1]): 0.954
- CI (HEL [2]): 0.453
- fractional inhibitory concentration index (FICI) (HEL [3]): 0.727
- T/C (HEL [4]): 94.9%
- CI (HEL [5]): 1.03
- inhibition in vivo at 10 mg/kg (HEL [6]): 7.4%
- CI (HEL [7]): 0.561
- fractional inhibitory concentration index (FICI) (HEL [8]): 0.86
- fractional inhibitory concentration index (FICI) (HEL [9]): 0.853
- CI (HEL [10]): 0.784
- fractional inhibitory concentration index (FICI) (HEL [11]): 0.802
- CI (HEL [12]): 0.798
- CI (HEL [13]): 0.956
- fractional inhibitory concentration index (FICI) (HEL [14]): 0.836
- fractional inhibitory concentration index (FICI) (HEL [15]): 0.868
- fractional inhibitory concentration index (FICI) (HEL [16]): 0.862
- CI (HEL [17]): 0.954
- fractional inhibitory concentration index (FICI) (HEL [18]): 0.852
- IC50 (HEL [19]): 130 nM

- IC50 (HCT-116): > 2000 nM
- IC50 (K562): 120 nM
- inhibition (Histone deacetylase 1 [20]): Active
- IC50 (A549): 930 nM
- IC50 (Histone deacetylase 2 [21]): 42000 nM
- inhibition [22]: Active
- inhibition (Histone deacetylase 2 [23]): Active
- IC50 (MCF7): > 2000 nM
- IC50 (Histone deacetylase 1 [24]): 320 nM
- IC50 (HepG2): 290 nM
- inhibition [25]: Active
- IC50 [26]: 11000 nM
- IC50 (Histone deacetylase 3): 15000 nM
- IC50 (Histone deacetylase 8): 690 nM
- inhibition [27]: Active
- inhibition [28]: Active
SMILES: CN1c2ccc(F)cc2C(=O)N2CCc3c([nH]c4ccc(OCc5ccc(/C=C/C(=O)Nc6ccccc6N)cc5)cc34)C21 (stereo unspecified)
- IC50 (HEL [19]): 240 nM
